Measurements from patent US20190055235A1, “SUBSTITUTED BICYCLIC COMPOUNDS AS BROMODOMAIN INHIBITORS” (ZENITH EPIGENETICS LTD., priority 2014, published 2019).

What was measured:
[1] = molecular target: T1, Brd4 bromodomain 1 (BRD4(1)) (Homo sapiens, UniProt O60885); assay: Inhibition of tetra-acetylated histone H4 binding to Brd4 bromodomain 1 (AlphaScreen); conditions: His-tagged BRD4(1) at 20 nM, biotinylated tetra-acetylated histone H4 peptide, 30 min incubation
T1 construct: N-terminally His-tagged bromodomains (BRD4(1) at 20 nM and BRD4(2) at 100 nM); made in house; host or cells: E. coli BL21(DE3)
Protocol: Proteins were cloned and overexpressed with a N-terminal 6×His tag, then purified by nickel affinity followed by size exclusion chromatography. Briefly, E. coli BL21(DE3) cells were transformed with a recombinant expression vector encoding N-terminally Nickel affinity tagged bromodomains from Brd2, Brd3, Brd4. Cell cultures were incubated at 37° C. with shaking to the appropriate density and induced overnight with IPTG. The supernatant of lysed cells was loaded onto Ni-IDA column for purification. Eluted protein was pooled, concentrated and further purified by size exclusion chromatography. Fractions representing monomeric protein were pooled, concentrated, aliquoted, and frozen at −80° C. for use in subsequent experiments.
Binding of tetra-acetylated histone H4 peptide (Millipore) and BET bromodomains was confirmed by Amplified Luminescent Proximity Homogenous Assay (AlphaScreen). N-terminally His-tagged bromodomains (BRD4(1) at 20 nM and BRD4(2) at 100 nM) and biotinylated tetra-acetylated histone H4 (10-25 nM) were incubated in the presence of nickel chelate acceptor beads and streptavidin donor beads (PerkinAlmer, 6760000K) added to a final concentration of 2 μg/ml under green light in a white 96 well microtiter plate (Greiner). For inhibition assays, serially diluted compounds were added to the reaction mixtures in a 0.1% final concentrations of DMSO. Final buffer concentrations were 50 mM HEPES, 100 mM NaCl and 0.1% BSA buffer, pH 7.4 and optimized to 30 min incubation time. Assay plates were read at 570 nm on a Synergy H4 Plate Reader (Biotek). IC50 values were determined from a dose response curve.

hIL-17 mRNA = assay: Inhibition of hIL-17 mRNA transcription in OKT3-stimulated human peripheral blood mononuclear cells; format: cell-based; conditions: human PBMC, 1 h pretreatment, OKT3 antibody, 6 h, real-time PCR; read-out: IL-17 activity
Protocol: Human peripheral blood mononuclear cells were plated (2.0×10^5 cells per well) in a 96-well plate in 45 μL OpTimizer T Cell expansion media (Life Technologies) containing 20 ng/ml IL-2 and penicillin/streptomycin. The cells were treated with increasing concentrations of the test compound or DMSO (0.1%), and were incubated at 37° C., 5% CO2 for 1 h before addition of 10× stock OKT3 antibody at 10 ug/ml in media. Triplicate wells were used for each concentration. Cells were incubated at 37° C., 5% CO2 for 6 h before the cells were harvested. At time of harvest, cells were pelleted by centrifugation at 800 rpm for 5 min. Cells were harvested using the mRNA Catcher PLUS kit according to manufacturer's instructions. The eluted mRNA was then used in a one-step quantitative real-time PCR reaction, using components of the RNA UltraSense™ One-Step Kit (Life Technologies) together with Applied Biosystems TaqMan® primer-probes for hIL-17 and Cyclophilin. Real-time PCR plates were run on a ViiA™7 real time PCR machine (Applied Biosystems). The data was analyzed, and the Ct values for hIL-17 were normalized to an internal control prior to determining the fold induction of each unknown sample, relative to the control.

hIL-6 mRNA = assay: Inhibition of hIL-6 mRNA transcription in PMA-differentiated, LPS-stimulated U937 cells; format: cell-based; conditions: Homo sapiens, U-937; U937 cells differentiated with PMA, 1 h pretreatment, 1 ug/mL LPS, 3 h, real-time PCR; read-out: IL-6 activity
Protocol: Human leukemic monocyte lymphoma U937 cells (CRL-1593.2) were plated at a density of 3.2×10^4 cells per well in a 96-well plate in 100 μL RPMI-1640 containing 10% FBS and penicillin/streptomycin, and were differentiated into macrophages for 3 days in 60 ng/mL PMA ([…]) at 37° C. in 5% CO2 prior to the addition of compound. The cells were pretreated for 1 h with increasing concentrations of test compound in 0.1% DMSO prior to stimulation with 1 ug/mL lipopolysaccharide from Escherichia coli. Triplicate wells were used for each concentration. The cells were incubated at 37′C, 5% CO2 for 3 h before the cells were harvested. At time of harvest, media was removed and cells were rinsed in 200 μL PBS. Cells were harvested using the mRNA Catcher PLUS kit according to manufacturer's instructions. The eluted mRNA was then used in a one-step quantitative real-time PCR reaction using components of the RNA UltraSense™ One-Step Kit (Life Technologies) together with Applied Biosystems TaqMan® primer-probes for hIL-6 and Cyclophilin. Real-time PCR plates were run on a ViiA™7 real time PCR machine (Applied Biosystems). The data was analyzed, and the Ct values for hIL-6 were normalized to an internal control prior to determining the fold expression of each sample, relative to the control.

SMILES: Cc1noc(C)c1-c1ccc2[nH]nc(CN3CCCCC3)c2c1 [Example 10, 3,5-Dimethyl-4-[3-(1-piperidylmethyl)-1H-indazol-5-yl]isoxazole]
- IC50 [1]: ≤ 300 nM
- IC50 (hIL-17 mRNA): 300 to 3000 nM
- IC50 (hIL-6 mRNA): 300 to 3000 nM

SMILES: CSc1cccc(Cn2c(C)nc3ncc(-c4c(C)noc4C)cc32)c1 [Example 4, 3,5-Dimethyl-4-(2-methyl-1-(3-(methylthio)benzyl)-1H-imidazo[4,5-b]pyridin-6-yl)isoxazole]
- IC50 [1]: ≤ 300 nM
- IC50 (hIL-17 mRNA): 3000 to 30000 nM
- IC50 (hIL-6 mRNA): 300 to 3000 nM

SMILES: Cc1noc(C)c1-c1ccc2[nH]nc(CN3CCC(F)(F)CC3)c2c1 [Example 9, 4-(3-((4,4-Difluoropiperidin-1-yl)methyl)-1H-indazol-5-yl)-3,5-dimethylisoxazole]
- IC50 [1]: ≤ 300 nM
- IC50 (hIL-17 mRNA): 300 to 3000 nM
- IC50 (hIL-6 mRNA): 300 to 3000 nM

SMILES: COC1CCN(Cc2n[nH]c3ccc(-c4c(C)noc4C)cc23)CC1 [Example 13, 4-[3-[(4-Methoxy-1-piperidyl)methyl]-1H-indazol-5-yl]-3,5-dimethyl-isoxazole]
- IC50 [1]: 300 to 3000 nM
- IC50 (hIL-6 mRNA): 300 to 3000 nM

SMILES: Cc1noc(CO)c1-c1cnc2nc(C)n(Cc3ccccc3)c2c1 [Example 7, (4-(1-Benzyl-2-methyl-1H-imidazo[4,5-b]pyridin-6-yl)-3-methylisoxazol-5-yl)methanol]
- IC50 [1]: ≤ 300 nM
- IC50 (hIL-6 mRNA): 300 to 3000 nM

SMILES: CSc1ccc(Cn2c(C)nc3ncc(-c4c(C)noc4C)cc32)cc1 [Example 1, 3,5-Dimethyl-4-(2-methyl-1-(4-(methylthio)benzyl)-1H-imidazo[4,5-b]pyridin-6-yl)isoxazole]
- IC50 [1]: ≤ 300 nM
- IC50 (hIL-17 mRNA): 300 to 3000 nM
- IC50 (hIL-6 mRNA): 300 to 3000 nM

SMILES: COC(=O)c1ccc(Cn2c(C)nc3ncc(-c4c(C)noc4C)cc32)cc1 [Example 3, Methyl 4-((6-(3,5-dimethylisoxazol-4-yl)-2-methyl-1H-imidazo[4,5-b]pyridin-1-yl)methyl)benzoate]
- IC50 [1]: ≤ 300 nM
- IC50 (hIL-6 mRNA): 300 to 3000 nM

SMILES: Cc1noc(C)c1-c1ccc2[nH]nc(CN3CCOCC3)c2c1 [Example 14, 4-[[5-(3,5-Dimethylisoxazol-4-yl)-1H-indazol-3-yl]methyl]morpholine]
- IC50 [1]: 300 to 3000 nM
- IC50 (hIL-6 mRNA): 3000 to 30000 nM

SMILES: COC(=O)c1cccc(Cn2c(C)nc3ncc(-c4c(C)noc4C)cc32)c1 [Example 2, Methyl 3-((6-(3,5-dimethylisoxazol-4-yl)-2-methyl-1H-imidazo[4,5-b]pyridin-1-yl)methyl)benzoate]
- IC50 [1]: ≤ 300 nM
- IC50 (hIL-17 mRNA): 300 to 3000 nM
- IC50 (hIL-6 mRNA): 300 to 3000 nM

SMILES: Cc1noc(C)c1-c1ccc2[nH]nc(CN3CCN(C)CC3)c2c1 [Example 11, 3,5-Dimethyl-4-[3-[(4-methylpiperazin-1-yl)methyl]-1H-indazol-5-yl]isoxazole]
- IC50 [1]: 300 to 3000 nM
- IC50 (hIL-17 mRNA): 300 to 3000 nM
- IC50 (hIL-6 mRNA): 3000 to 30000 nM

SMILES: Cc1noc(C)c1-c1cnc2nc(C)n(Cc3cccc(C(=O)O)c3)c2c1 [Example 6, 3-((6-(3,5-Dimethylisoxazol-4-yl)-2-methyl-1H-imidazo[4,5-b]pyridin-1-yl)methyl)benzoic acid]
- IC50 [1]: 3000 to 30000 nM

SMILES: Cc1noc(C)c1-c1cnc2nc(C)n(Cc3ccc([S+](C)[O-])cc3)c2c1 (centres unmarked) [Example 5, 3,5-Dimethyl-4-(2-methyl-1-(4-(methylsulfinyl)benzyl)-1H-imidazo[4,5-b]pyridin-6-yl)isoxazole]
- IC50 [1]: ≤ 300 nM

SMILES: Cc1nocc1-c1cnc2nc(C)n(Cc3ccccc3)c2c1 [Example 8, 4-(1-Benzyl-2-methyl-1H-imidazo[4,5-b]pyridin-6-yl)-3-methylisoxazole]
- IC50 [1]: ≤ 300 nM
- IC50 (hIL-6 mRNA): 300 to 3000 nM

SMILES: Cc1noc(C)c1-c1ccc2[nH]nc(CN3CCC(C#N)CC3)c2c1 [Example 12, 1-[[5-(3,5-Dimethylisoxazol-4-yl)-1H-indazol-3-yl]methyl]piperidine-4-carbonitrile]
- IC50 [1]: ≤ 300 nM
- IC50 (hIL-6 mRNA): 300 to 3000 nM
